BindingDB's records for PubMed 35227979 (Northwest University, 2022)

Molecular target: Beta-2 adrenergic receptor (Homo sapiens, UniProt P07550)
Test: Binding affinity to immobilized Halo tag-fused beta2 adrenoceptor (unknown origin) expressed in Escherichia coli BL21 (DE3) assessed as dissociation rate constant by receptor chromatography

Chain of Beta-2 adrenergic receptor (P07550 whole entry, the tested form may be a part): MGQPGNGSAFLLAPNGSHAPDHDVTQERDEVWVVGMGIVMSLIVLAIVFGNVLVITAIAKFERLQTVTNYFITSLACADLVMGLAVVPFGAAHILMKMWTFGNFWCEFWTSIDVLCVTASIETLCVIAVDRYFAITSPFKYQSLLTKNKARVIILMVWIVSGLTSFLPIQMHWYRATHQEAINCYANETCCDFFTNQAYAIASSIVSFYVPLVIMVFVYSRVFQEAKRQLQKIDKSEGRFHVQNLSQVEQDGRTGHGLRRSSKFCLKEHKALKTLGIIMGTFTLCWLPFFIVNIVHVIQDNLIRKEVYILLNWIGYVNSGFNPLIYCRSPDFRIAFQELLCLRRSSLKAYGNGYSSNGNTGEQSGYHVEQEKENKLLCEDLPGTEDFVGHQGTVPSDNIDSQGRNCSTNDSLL

Row | Structure (SMILES) | Kd [nM]
1 | CC1(C)[C@@H](O)CC[C@]2(C)[C@H]3C(=O)C=C4[C@@H]5C[C@@](C)(C(=O)NCCc6ccc(O)cc6)CC[C@]5(C)CC[C@@]4(C)[C@]3(C)CC[C@@H]12 | 7.5
2 | CNC(C)Cc1ccccc1OC (configuration not stated) [Methoxyphenamine] | 0.98
